# Laboratory results: US20230000868A1, “USE OF 2-PHENYL-6-(1H-IMIDAZOL-1-YL) QUINAZOLINE FOR THE PREVENTION OF ABUSE AND OF SIDE EFFECTS OF AT LEAST ONE OPIOID” (ROTTAPHARM BIOTECH S.R.L., priority 2019, published 2023)
# Entries after “also recorded” stand apart in the source; their conditions may differ. Like-named read-outs stand apart in the source and are kept apart here.
# How the values were obtained:
# [1] = Inflammatory pain induced by complete Freund adjuvant (CFA); assay type: in vivo, rat; conditions: CR4056 1 mg/kg alone; FIG. 1, described as known effects
# Excerpt: Previous art in the scientific literature describes that imidazoline I2 receptor agonists potentiate morphine-induced analgesia.
# [2] = Open field test (distance travelled, sedation)
# Description: The so-called open field test was used as a first model and the experiments were performed according to the procedure described by Haleem and Nawaz (Pain, 2017, 18:19-28). Drugs were administered 60 min (CR4056 or its vehicle, p.o.) and 30 min (morphine or its vehicle, s.c.) before the open field test. The video tracking was performed using the software Ethovision XT 13 (Noldus Information Technology), to assess the “distance travelled” as the primary parameter of sedation in this model. The test was performed every day after 4 days of repeated treatment.
# [3] = Conditioned place preference (CPP)
# Excerpt: This test exploits the tendency of rats to associate the environment where they are located with the effect of drugs administered during a conditioning period. The experiment was done in a wooden apparatus consisting of two lateral chambers (30×25 cm, length×width) with different visual and tactile properties and a central “neutral” chamber, smaller than the others (12×25 cm, length×width) with total white floor and walls. The lateral chambers had different decoration of walls (points or stripes) and different type of floor (smooth or rough). These differences can be recognized by rats, and thus associated with the effect of drug or vehicle treatment. All walls were 38.5 cm high. Four days before the preconditioning phase, the light/dark cycle was inverted; all phases of experiments were performed during the dark phase. On the preconditioning day (day 1), Wistar rats (Charles River) were placed in the neutral chamber and for 15 min they were free to explore all the environments of the apparatus (van der Kam E. L. et al. Pain, 2008, 136:373-379). The time spent in each chamber was recorded with a video tracking software (Ethovision XT 13, Noldus information technology). Rats that spent over 60% of time in one of two lateral chambers were not admitted to the conditioning phase: for admitted animals, the “preferred” chamber was therefore the one where a rat spent between 50% and 60% of time during preconditioning (while the “unpreferred” chamber was the opposite one). After preconditioning, rats were randomly assigned to the experimental groups (n=16). A total of 256 rats were used in this model. During the 2 days of the conditioning phase rats were treated with the test drug(s) (day 2) or vehicle (day 3). On the first conditioning day rats were treated with the test drug(s) and were confined in the preconditioning unpreferred lateral chamber (now defined paired chamber), with no access to the other chambers of the apparatus for 40 min. On the second day of conditioning rats were treated with vehicle and were located in the opposite chamber (unpaired chamber). The control group received vehicle in both chambers. CR4056 or its vehicle were administered 40 min before conditioning, whereas morphine or its vehicle were administered immediately before conditioning. There was no treatment on the test day (day 4), when rats were placed in the neutral chamber with the possibility to explore all chambers of the apparatus. The time spent in each chamber was recorded.
# CR4056 (1 mg/kg) and morphine (1 mg/kg) alone or in co-administration were administered every other day. After 8 days of conditioning the test day was held as described above.
# [4] = Opioid-induced constipation (faecal number 16 h after drug treatment)
# Description: The experiments were conducted according to the procedure described by Harada et al. (J. Pharmacol. Exp. Ther. 2017, 362: 78-84). Wistar rats were used in this model. Fecal excretion was evaluated at the end of the dark phase of the light/dark cycle, when most activities and feeding of albino rats take place. Drugs were administered 2 h before the dark phase of the light/dark cycle, and the feces were collected and counted 16 h after drug treatment. In this experimental paradigm, CR4056 1 or 6 mg/kg was administered orally 15 min before morphine or codeine. A full analgesic dose of morphine (10 mg/kg subcutaneous) or codeine (12 mg/kg oral) were administered 15 minutes after CR4056 or vehicle.
# [5] = Sedation rating scale; assay type: in vivo, rat
# Excerpt: In addition, sedation was scored before each rotarod testing by the sedation rating scale. […] At each time point, a score from 0 (maximum sedation) to 5 (absent sedation) was assigned to each of the 8 parameters. The sum of the scores produced the total score.
# [6] = single administration, Morphine 1 mg/Kg
# [7] = single administration, Morphine 2.5 mg/Kg
# [8] = single administration, Morphine 5 mg/Kg
# [9] = morphine 1 mg/kg alone vs control rats
smiles,measurement,setting,value
"c1ccc(-c2ncc3cc(-n4ccnc4)ccc3n2)cc1 [CR4056, 2-phenyl-6-(1H-imidazol-1-yl) quinazoline]",analgesic effect,[1],non-analgesic
same,locomotor activity (sedation),"[2]; in vivo, po, 1 mg/kg",not sedative per se
same,place preference,"[3]; rat, in vivo, 6 mg/kg",did not induce place preference
"COc1ccc2c3c1O[C@H]1[C@@H](O)C=C[C@H]4[C@@H](C2)N(C)CC[C@@]341 [Codeine, codeine]",defecation (faecal number),"[4]; codeine 12 mg/kg oral, 16 h after treatment, vs vehicle or CR4056",significant decrease in defecation
"CN1CC[C@]23c4c5ccc(O)c4O[C@H]2[C@@H](O)C=C[C@H]3[C@H]1C5 [Morphine, morphine]",faecal number,"[4]; morphine 10 mg/kg subcutaneous, 16 h, P<0.05 vs vehicle",significant decrease in faecal number; also recorded: significantly reduced faecal count
same,locomotor activity (sensitization),"[2]; morphine 1-2.5 mg/kg, increased locomotor activity over 4 days of repeated treatment",modest sensitization
same,locomotor activity (sedation),"[2]; morphine s.c. at doses higher than 5 mg/kg, 4 days of repeated treatment",clear sedative effect
same,locomotor activity (sedation),"[2]; morphine s.c., lower doses (not higher than 5 mg/kg)",not sedative
same,preference for the paired chamber,"[3]; acute administration, morphine 1 mg/kg",did not induce preference
same,preference for the paired chamber (time paired vs unpaired),"[3]; acute administration, morphine 2.5 mg/kg",induced a statistically significant difference
same,preference for the paired chamber (time paired vs unpaired),"[3]; acute administration, morphine 5 mg/kg",induced a statistically significant difference
same,%(P − U),"[3]; repeated administrations, 8 days of conditioning, Morphine 1 mg/kg",+14%
same,Δ(P − U) ± ES,"[3]; repeated administrations, 8 days of conditioning, Morphine 1 mg/kg, (*) paired t-test < 0.05",95 ± 17 (*)
same,Seconds in Unpaired chamber (U),"[3]; repeated administrations, every other day, 8 days of conditioning, Morphine 1 mg/kg",295 s
same,preference for the paired chamber,"[3]; repeated conditionings, morphine 1 mg/kg alone",induced preference
same,%(P − U),[3]; [6],1.2%
same,Seconds in Unpaired chamber (U),[3]; [6],341 s
same,Δ(P − U) ± ES,[3]; [6],7.6 ± 9.4
same,%(P − U),[3]; [7],17.1%
same,Seconds in Unpaired chamber (U),[3]; [7],291 s
same,%(P − U),[3]; [8],20.2%
same,Seconds in Unpaired chamber (U),[3]; [8],266 s
same,sedation scores,[5]; [9],no significant changes in performance
same,sedation scores,[5]; morphine 10 mg/kg vs controls,clearly sedative
same,rotarod performance,[9],no significant changes in performance
same,rotarod performance,morphine 10 mg/kg vs controls,clearly sedative
